# No end group written: not given here.
# Experiments:
# [1] = system: serum samples from patients infected with group O HIV-1 retroviruses; test: Immunoenzymatic test: Test No. 2 (immunoreactivity with diluted sera); format: binding, human; settings: solid phase peptide 2 μg/ml; for Number of samples: sera of Table V; for ABSORBANCE (OD): cyclized
# Description: The serum samples from patients infected with group O HIV-1 retroviruses were obtained by the Yaounde Pasteur Centre in Cameroon and were serotyped group O according to the serological algorithm described in AIDS (1977), 11, pp. 445-453. A genotyped sample (Maryland) is obtained from the United States. These samples were previously diluted in negative human serum at the dilutions given in Table V, in order to have a sufficient volume for the different immunoreactivity tests.
# The synthetic peptides used were dissolved in water at a concentration of 1 mg/ml (stock solution). For the solid phase sensitization step (“coating”), the procedure was carried out as described for Example 2.
# The serum samples were diluted 1/5 with a skimmed milk solution (citrate buffer supplemented with 0.01% of phenol red, 0.25% of chloroform and 0.25% of Kathon®), deposited in the wells of plates and incubated for 30 min at 40° C.
# After washing with a Tris-NaCl buffer solution pH 7.4 containing 0.1% of Tween® 20 and 0.001% of sodium merthiolate, 100 μl of a solution of conjugate consisting of horseradish peroxidase-labelled anti-human IgG and IgM goat antibodies, containing as preservative 0.01% of sodium merthiolate, in solution in a citrate buffer solution supplemented with 30% glycerol and 25% normal foetal calf serum, were added to each well of the plates and then they were incubated for 30 min at 40° C.
# After washing with a Tris-NaCl buffer solution pH 7.4 containing 0.1% of Tween® 20 and 0.001% of sodium merthiolate, the colour was developed as described in Example 2.
# The relative absorbance (OD) (A490-A620) read in each well is proportional to the immunoreactivity of each peptide. It indicates the ability of each peptide to react with the biological sample with which the test is carried out.
# The reactivity of the peptides of the invention, peptides No. 10 (14B), No. 11 (18B), No. 12 (19B), No. 14 (21B), No. 15 (22B), No. 16 (23B) all in cyclized form, was compared with that of three homologous synthetic peptides having, as sequence, a portion of the natural sequence of the envelope (env) of a group O HIV-1 retrovirus. These peptides are two peptides derived from the VAU isolate—the peptide VAU 22 AA and the peptide VAU 35 AA—and the peptide MVP 5180 (designated “MVP 5180” in Table V). The peptides VAU 22 AA and VAU 35 AA (whose structure is indicated in Example 2) and the peptide MVP 5180 comprise an immunodominant epitope of gp41.
# All these peptides were used in cyclized form. The sequence of the MVP 5180 peptide is the following:
# For each peptide tested, the samples were arranged into four classes (a, b, c and d) corresponding to various levels of relative absorbance read at the wavelengths A492-A620: • for a: OD<0.100, • for b: 0.100<OD<0.500, • for c: 0.500<OD<1.000, • for d: OD>1.000, thus making it possible to evaluate the degree of immunoreactivity of the peptides.
# [2] = system: sera from patients infected with group O HIV-1 retroviruses; test: Immunoenzymatic test of compositions containing peptides (Example 4); format: binding, human; design: key: >: signal greater than the reading capacity of the spectrophotometer; settings: single peptide 2 μg/ml or composition 1 μg/ml + 1 μg/ml
# Procedure: For this test, the procedure was carried out according to the protocol described in Example 2 and the same sera were used. The microplates used were sensitized either with peptide No. 1 (2B) cyclized, or with peptide No. 3 (4B) cyclized, or with a composition containing these two peptides (1:1 w/w). Into each well, there were deposited either 100 μl of a solution containing 2 μg/ml of peptide No. 1 (2B), or 100 μl of a solution containing 2 μg/ml of peptide No. 3 (4B), or 100 μl of a solution containing 1 μg/ml of peptide No. 1 (2B) and 1 μg/ml of peptide No. 3 (4B).
sequence,measurement,setting,value
"LLNLWGCKNRAICYTSVKWNKT (cysteine pairing not given here) [VAU 22 AA, reference compound]",Number of samples,[1]; CLASS A (a: OD<0.100),7
same,Number of samples,[1]; CLASS B (b: 0.100<OD<0.500),7
same,Number of samples,[1]; CLASS C (c: 0.500<OD<1.000),0
same,Number of samples,[1]; CLASS D (d: OD>1.000),0
same,ABSORBANCE (OD),[1]; serum 258 OUDI at 1/100,0.100
same,ABSORBANCE (OD),[1]; serum 625 at 1/50,0.165
same,ABSORBANCE (OD),[1]; serum 3600 at 1/100,0.058
same,ABSORBANCE (OD),[1]; serum 3613 at ¼00,0.396
same,ABSORBANCE (OD),[1]; serum 3653 at 1/10,0.310
same,ABSORBANCE (OD),[1]; serum 4280 at 1/50,0.021
same,ABSORBANCE (OD),[1]; serum 6111 at 1/100,0.180
same,ABSORBANCE (OD),[1]; serum DJOU at 1/100,0.042
same,ABSORBANCE (OD),[1]; serum DO15 at 1/100,0.075
same,ABSORBANCE (OD),[1]; serum MBASSI at 1/100,0.257
same,ABSORBANCE (OD),[1]; serum Maryland at ¼00,0.168
same,ABSORBANCE (OD),[1]; serum NGO at 1/50,0.040
same,ABSORBANCE (OD),[1]; serum NJEM at 1/100,0.024
same,ABSORBANCE (OD),[1]; serum WANG at 1/50,0.041
LLSLWGCRGKAVCYTSVQWNET [PEPTIDE No. 1 (2B)],ABSORBANCE,[2]; serum 1062,>
same,ABSORBANCE,[2]; serum 1702,1.016
same,ABSORBANCE,[2]; serum 1754,>
same,ABSORBANCE,[2]; serum 2294,0.447
same,ABSORBANCE,[2]; serum 2352,0.205
same,ABSORBANCE,[2]; serum 2551,>
same,ABSORBANCE,[2]; serum 2700,>
same,ABSORBANCE,[2]; serum 3016,0.243
same,ABSORBANCE,[2]; serum 3136 (listed twice),0.302
same,ABSORBANCE,[2]; serum 3235,>
same,ABSORBANCE,[2]; serum 3302,0.386
same,ABSORBANCE,[2]; serum 3482,1.473
same,ABSORBANCE,[2]; serum 3600,2.743
same,ABSORBANCE,[2]; serum 3627,2.910
same,ABSORBANCE,[2]; serum 3771,0.544
same,ABSORBANCE,[2]; serum 3891,2.780
same,ABSORBANCE,[2]; serum 3935,0.307
same,ABSORBANCE,[2]; serum 4477*,>
same,ABSORBANCE,[2]; serum 4489,>
same,ABSORBANCE,[2]; serum 5149,>
same,ABSORBANCE,[2]; serum 5270,>
same,ABSORBANCE,[2]; serum 5931,>
same,ABSORBANCE,[2]; serum 6165,2.714
same,ABSORBANCE,[2]; serum 6198,>
same,ABSORBANCE,[2]; serum 6627,>
same,ABSORBANCE,[2]; serum 6697,>
same,ABSORBANCE,[2]; serum 6891,0.062
same,ABSORBANCE,[2]; serum 6976,>
same,ABSORBANCE,[2]; serum 6998,>
same,ABSORBANCE,[2]; serum 7258,2.477
same,ABSORBANCE,[2]; serum 7443,>
LLSSWGCKGRLVCYTSVQWNET [PEPTIDE No. 3 (4B)],ABSORBANCE,[2]; serum 1062,>
same,ABSORBANCE,[2]; serum 1702,>
same,ABSORBANCE,[2]; serum 1754,>
same,ABSORBANCE,[2]; serum 2294,>
same,ABSORBANCE,[2]; serum 2352,>
same,ABSORBANCE,[2]; serum 2551,>
same,ABSORBANCE,[2]; serum 2700,>
same,ABSORBANCE,[2]; serum 3016,>
same,ABSORBANCE,[2]; serum 3136 (listed twice),>
same,ABSORBANCE,[2]; serum 3235,>
same,ABSORBANCE,[2]; serum 3302,>
same,ABSORBANCE,[2]; serum 3482,>
same,ABSORBANCE,[2]; serum 3600,>
same,ABSORBANCE,[2]; serum 3627,>
same,ABSORBANCE,[2]; serum 3771,>
same,ABSORBANCE,[2]; serum 3891,>
same,ABSORBANCE,[2]; serum 3935,>
same,ABSORBANCE,[2]; serum 4477*,>
same,ABSORBANCE,[2]; serum 4489,>
same,ABSORBANCE,[2]; serum 5149,>
same,ABSORBANCE,[2]; serum 5270,>
same,ABSORBANCE,[2]; serum 5931,>
same,ABSORBANCE,[2]; serum 6165,>
same,ABSORBANCE,[2]; serum 6198,>
same,ABSORBANCE,[2]; serum 6627,>
same,ABSORBANCE,[2]; serum 6697,>
same,ABSORBANCE,[2]; serum 6891,>
same,ABSORBANCE,[2]; serum 6976,>
same,ABSORBANCE,[2]; serum 6998,>
same,ABSORBANCE,[2]; serum 7258,>
same,ABSORBANCE,[2]; serum 7443,>
"RLLALETFIEENELLNLWGCKNRAICYTSVKWNKT (cysteine pairing not given here) [VAU 35 AA, reference compound]",Number of samples,[1]; CLASS A (a: OD<0.100),11
same,Number of samples,[1]; CLASS B (b: 0.100<OD<0.500),3
same,Number of samples,[1]; CLASS C (c: 0.500<OD<1.000),0
same,Number of samples,[1]; CLASS D (d: OD>1.000),0
same,ABSORBANCE (OD),[1]; serum 258 OUDI at 1/100,0.058
same,ABSORBANCE (OD),[1]; serum 625 at 1/50,0.069
same,ABSORBANCE (OD),[1]; serum 3600 at 1/100,0.025
same,ABSORBANCE (OD),[1]; serum 3613 at ¼00,0.250
same,ABSORBANCE (OD),[1]; serum 3653 at 1/10,0.021
same,ABSORBANCE (OD),[1]; serum 4280 at 1/50,0.013
same,ABSORBANCE (OD),[1]; serum 6111 at 1/100,0.087
same,ABSORBANCE (OD),[1]; serum DJOU at 1/100,0.022
same,ABSORBANCE (OD),[1]; serum DO15 at 1/100,0.036
same,ABSORBANCE (OD),[1]; serum MBASSI at 1/100,0.120
same,ABSORBANCE (OD),[1]; serum Maryland at ¼00,0.054
same,ABSORBANCE (OD),[1]; serum NGO at 1/50,0.055
same,ABSORBANCE (OD),[1]; serum NJEM at 1/100,0.159
same,ABSORBANCE (OD),[1]; serum WANG at 1/50,0.025

# — patent US7053175B1, “Synthetic peptides useful in biological assays for detecting infections caused by group O HIV-1 viruses” (Bio-Rad Pasteur, priority 1997, dated 2006)
